Data on 3 compounds can be found in PubChem BioAssay AID651617 (Broad Institute, 2012).

In this assay the test system is M. tuberculosis log-phase replicating growth, plate reader. Description: growth inhibition of replicating M. tuberculosis, dose response, counter-screen, dry powder (AID 651617). (Counterscreens check selectivity or assay interference.)
One may read the IC90 as the point of the concentration-response curve where the effect stands at 90%. Consider `c1ccc(-c2nnc(SCc3cccnc3)o2)cc1`, for which the IC90 is 125 µM.
Turning to `c1ccc(-c2nnc(SCC3CC3)o2)cc1`, the IC90 was 125 µM.
The figure for `[N-]=[N+]=NCCOCCNC(=O)CCCOc1ccc(CS(=O)c2nnc(-c3ccc(F)cc3)o2)nc1` (stereo not drawn) is 125 µM.
